According to ChEMBL document CHEMBL4828776, “Acremopeptaibols A-F, 16-Residue Peptaibols from the Sponge-Derived Acremonium sp. IMB18-086 Cultivated with Heat-Killed Pseudomonas aeruginosa” (J Nat Prod, 2021):
≈ marks a conversion by molar mass, not a printed value. Non-standard residues stand in square brackets, D forms with d. Residues, ends and D or L forms follow the SMILES beside them. Hyp = O=C(O)[C@@H]1C[C@@H](O)CN1; Phe(ol) = N[C@H](CO)Cc1ccccc1; Aib = CC(C)(N)C(=O)O

Columns and labels:
Enterococcus faecalis = experiment: Antibacterial activity against vancomycin-resistant Enterococcus faecalis 21-07 assessed as inhibition of bacterial growth incubated for 16 hrs by microdilution method; type: functional
Candida albicans = experiment: Antifungal activity against Candida albicans ATCC 10231 assessed as inhibition of fungal growth incubated for 16 hrs by microdilution method; type: functional
Staphylococcus aureus [1] = experiment: Antibacterial activity against Staphylococcus aureus ATCC 29213 assessed as inhibition of bacterial growth incubated for 16 hrs by microdilution method; type: functional
Bacillus subtilis = experiment: Antibacterial activity against Bacillus subtilis ATCC 6633 assessed as inhibition of bacterial growth incubated for 16 hrs by microdilution method; type: functional
Escherichia coli = experiment: Antibacterial activity against Escherichia coli ATCC 25922 assessed as inhibition of bacterial growth incubated for 16 hrs by microdilution method; type: functional
Staphylococcus aureus [2] = experiment: Antibacterial activity against methicillin-resistant Staphylococcus aureus ATCC 33591 assessed as inhibition of bacterial growth incubated for 16 hrs by microdilution method; type: functional
HepG2 = experiment: Cytotoxicity against human HepG2 cells assessed as reduction in cell viability incubated for 48 hrs by CCK8 assay; type: functional, cell-based; conditions: HepG2, 48 h
[3] = test system: Staphylococcus epidermidis; experiment: Antibacterial activity against Staphylococcus epidermidis ATCC 12228 assessed as inhibition of bacterial growth incubated for 16 hrs by microdilution method; type: functional
A549 = experiment: Cytotoxicity against human A549 cells assessed as reduction in cell viability incubated for 48 hrs by CCK8 assay; type: functional, cell-based; conditions: A549, 48 h
Staphylococcus aureus [4] = experiment: Antibacterial activity against Staphylococcus aureus ATCC 25923 assessed as inhibition of bacterial growth incubated for 16 hrs by microdilution method; type: functional
Pseudomonas aeruginosa = experiment: Antibacterial activity against Pseudomonas aeruginosa ATCC 27853 assessed as inhibition of bacterial growth incubated for 16 hrs by microdilution method; type: functional

Compound	MIC (Enterococcus faecalis) [µg/mL]	MIC (Candida albicans) [µg/mL]	MIC (Staphylococcus aureus [1]) [µg/mL]	MIC (Bacillus subtilis) [µg/mL]	MIC (Escherichia coli) [µg/mL]	MIC (Staphylococcus aureus [2]) [µg/mL]	IC50 (HepG2) [nM]	MIC [3] [µg/mL]	IC50 (A549) [nM]	MIC (Staphylococcus aureus [4]) [µg/mL]	MIC (Pseudomonas aeruginosa) [µg/mL]
CC(/C=C/[C@@]1(C)[C@H](C)CC[C@@H](O)[C@@H]1C)=C\Cc1c(O)c(Cl)c(C)c(C=O)c1O	> 128	> 128	> 128	32 (≈ 78.6 µM)	> 128	> 128	900	16 (≈ 39.3 µM)	900	16 (≈ 39.3 µM)	> 128
CC[C@@](C)(NC(=O)[C@H](CCC(N)=O)NC(=O)C(C)(C)NC(=O)[C@H](Cc1c[nH]c2ccccc12)NC(C)=O)C(=O)NCC(=O)NC(C)(C)C(=O)N[C@@H](C)C(=O)NC(C)(C)C(=O)NC(C)(C)C(=O)NCC(=O)N[C@@H](CCC(N)=O)C(=O)N[C@](C)(CC)C(=O)N1C[C@H](O)C[C@H]1C(=O)NC(C)(C)C(=O)N1CCC[C@H]1C(=O)N[C@H](CO)Cc1ccccc1	> 128	32 (≈ 19.3 µM)	64 (≈ 38.7 µM)	16 (≈ 9.67 µM)	> 128	64 (≈ 38.7 µM)	≥ 50000	> 128	≥ 50000	64 (≈ 38.7 µM)	> 128
NYSTATIN		> 128									
CC[C@@](C)(NC(=O)[C@H](CCC(N)=O)NC(=O)CNC(=O)C(C)(C)NC(=O)C(C)(C)NC(=O)[C@H](C)NC(=O)C(C)(C)NC(=O)CNC(=O)C(C)(C)NC(=O)[C@H](CCC(N)=O)NC(=O)C(C)(C)NC(=O)[C@H](Cc1c[nH]c2ccccc12)NC(C)=O)C(=O)N1C[C@H](O)C[C@H]1C(=O)NC(C)(C)C(=O)N1CCC[C@H]1C(=O)N[C@H](CO)Cc1ccccc1	> 128	64 (≈ 39 µM)	128 (≈ 78 µM)	32 (≈ 19.5 µM)	> 128	128 (≈ 78 µM)	≥ 50000	> 128	≥ 50000	128 (≈ 78 µM)	> 128
CN[C@H](CC(C)C)C(=O)N[C@H]1C(=O)N[C@@H](CC(N)=O)C(=O)N[C@H]2C(=O)N[C@H]3C(=O)N[C@H](C(=O)N[C@H](C(=O)O)c4cc(O)cc(O)c4-c4cc3ccc4O)[C@H](O)c3ccc(c(Cl)c3)Oc3cc2cc(c3O[C@@H]2O[C@H](CO)[C@@H](O)[C@H](O)[C@H]2O[C@H]2C[C@](C)(N)[C@H](O)[C@H](C)O2)Oc2ccc(cc2Cl)[C@H]1O [VANCOMYCIN]	16 (≈ 11 µM)			0.125 (≈ 0.0863 µM)	> 128						> 128
C/C(=C\Cc1c(O)c(Cl)c(C)c(C=O)c1O)CC/C=C(\C)[C@@H]1CC(=O)C(C)(C)O1 [ASCOFURANONE]	> 128	32 (≈ 76 µM)	16 (≈ 38 µM)	16 (≈ 38 µM)	> 128	32 (≈ 76 µM)	900	4 (≈ 9.5 µM)	900	4 (≈ 9.5 µM)	> 128
CC(=O)N[C@@H](Cc1c[nH]c2ccccc12)C(=O)NC(C)(C)C(=O)N[C@@H](CCC(N)=O)C(=O)NC(C)(C)C(=O)NCC(=O)NC(C)(C)C(=O)N[C@@H](C)C(=O)NC(C)(C)C(=O)NC(C)(C)C(=O)NCC(=O)N[C@@H](CCC(N)=O)C(=O)NC(C)(C)C(=O)N1C[C@H](O)C[C@H]1C(=O)NC(C)(C)C(=O)N1CCC[C@H]1C(=O)N[C@H](CO)Cc1ccccc1 (Ac-W[Aib]Q[Aib]G[Aib]A[Aib][Aib]GQ[Aib][Hyp][Aib]P[Phe(ol)])	> 128	> 128	> 128	> 128	> 128	> 128	≥ 50000	> 128	≥ 50000	> 128	> 128
COLISTIN	> 128		128	16	1	128		16		64	1
CC[C@@](C)(NC(=O)CNC(=O)[C@@](C)(CC)NC(=O)[C@H](CCC(N)=O)NC(=O)C(C)(C)NC(=O)[C@H](Cc1c[nH]c2ccccc12)NC(C)=O)C(=O)N[C@@H](C)C(=O)NC(C)(C)C(=O)NC(C)(C)C(=O)NCC(=O)N[C@@H](CCC(N)=O)C(=O)N[C@](C)(CC)C(=O)N1C[C@H](O)C[C@H]1C(=O)NC(C)(C)C(=O)N1CCC[C@H]1C(=O)N[C@H](CO)Cc1ccccc1	> 128	16 (≈ 9.59 µM)	32 (≈ 19.2 µM)	16 (≈ 9.59 µM)	> 128	64 (≈ 38.3 µM)	≥ 50000	> 128	≥ 50000	64 (≈ 38.3 µM)	> 128
C/C(=C\Cc1c(O)c(Cl)c(C)c(C=O)c1O)[C@H](O)C[C@@]1(C)[C@H](C)CCC(=O)[C@@H]1C	> 128	> 128	> 128	> 128	> 128	> 128	900	> 128	900	128 (≈ 303 µM)	> 128
CC[C@@](C)(NC(=O)CNC(=O)[C@@](C)(CC)NC(=O)[C@H](CCC(N)=O)NC(=O)C(C)(C)NC(=O)[C@H](Cc1c[nH]c2ccccc12)NC(C)=O)C(=O)N[C@@H](C)C(=O)NC(C)(C)C(=O)NC(C)(C)C(=O)NCC(=O)N[C@@H](CCC(N)=O)C(=O)NC(C)(C)C(=O)N1C[C@H](O)C[C@@H]1C(=O)NC(C)(C)C(=O)N1CCC[C@H]1C(=O)N[C@H](CO)Cc1ccccc1	> 128	64 (≈ 38.7 µM)	> 128	> 128	> 128	> 128	≥ 50000	> 128	≥ 50000	> 128	> 128
CC(/C=C/[C@@]1(C)[C@H](C)CCC(=O)[C@@H]1C)=C\Cc1c(O)c(Cl)c(C)c(C=O)c1O [ASCOCHLORIN]	> 128	4 (≈ 9.88 µM)	16 (≈ 39.5 µM)	2 (≈ 4.94 µM)	> 128	> 128	900	0.25 (≈ 0.617 µM)	900	1 (≈ 2.47 µM)	> 128
CC[C@@](C)(NC(=O)[C@H](CCC(N)=O)NC(=O)C(C)(C)NC(=O)[C@H](Cc1c[nH]c2ccccc12)NC(C)=O)C(=O)NCC(=O)NC(C)(C)C(=O)N[C@@H](C)C(=O)NC(C)(C)C(=O)NC(C)(C)C(=O)NCC(=O)N[C@@H](CCC(N)=O)C(=O)NC(C)(C)C(=O)N1C[C@H](O)C[C@H]1C(=O)NC(C)(C)C(=O)N1CCC[C@H]1C(=O)N[C@H](CO)Cc1ccccc1	> 128	64 (≈ 39 µM)	> 128	64 (≈ 39 µM)	> 128	> 128	≥ 50000	> 128	≥ 50000	> 128	> 128
